Assay [1] has as its system wt MEF cell lines. Put plainly: BAK oligomerization by gel filtration after staurosporine, wt cells. The class given is cell-based, mouse. The procedure: (§1) FIG. 4F is a photograph depicting mitochondria isolated from wt or vdac2 -/- MEF cell lines with or without treatment with STS for 5 hours were solubilized in 2% CHAPS buffer. 200 μg of lysate was subjected to Superdex 200 (HR 10/30) gel filtration column chromatography. Fractions were analyzed by an immunoblot developed with anti-BAK antibody.
(§2) The chromatographic step of Superdex 200 (HR 10/30, Amersham-Pharmacia) was performed on an automatic fast protein liquid chromatography (FPLC) station (Amersham-Pharmacia) at 4° C. […] Fractions of 0.6 ml were collected, precipitated by trichloroacetic acid, and analyzed by an immunoblot (fractions 16-31) developed with an anti-BAK Ab.
(§3) In contrast, the response of wt- and vdac2-dificient cells was similar when the extrinsic death pathway was activated by TNFα (FIG. 4E). […] BAK already underwent oligomerization within 5 hours after staurosporine treatment in vdac2 -/- cells but not wt cells, as assessed by gel filtration (FIG. 4F) (X. Roucou, S. Montessuit, B. Antonsson, J. C. Martinou, Biochem J 368, 915-21. (2002)). […]
In general terms: Size exclusion chromatography separates by hydrodynamic size, large species first.

For assay [2], the system named is vdac2 -/- MEF cell lines. The assay is described as follows: Cytochrome c release assay (subcellular fractionation, immunoblot), vdac2 -/- cells. The class given is cell-based, mouse. As to conditions: 1 μM staurosporine. The procedure: (§4) FIG. 4C is a photograph depicting treatment of wt or vdac2 -/- MEF cell lines with 1 μM STS. The wt or vdac2 -/- MEF cell lines were subcellularly fractionated (see method) at indicated time points. Cytochrome c distribution in the cytosol versus mitochondria was assessed by immunoblot developed with an anti-cytochrome c antibody.
(§5) MEF cell lines treated with 1 μM staurosporine were harvested at various time points and lysed for 5 min in isotonic buffer containing 10 mM KCl, 5 mM MgCl2, 1 mM EDTA, 1 mM EGTA, 250 mM sucrose, 20 mM Hepes, pH 7.2, 0.025% digitonin, and complete protease inhibitors (Roche). Organelles that contain mitochondria were removed from the soluble cytosolic fraction by pelleting at 15000 g. Supernatant and mitochondrial pellets were solubilized in SDS-PAGE loading buffer and analyzed by an immunoblot, developed with an anti-cytochrome c Ab. […]
as §3

A further assay relates to vdac2 -/- MEF lines. The assay is described as follows: Cytochrome c fluorescence microscopy after staurosporine, vdac2 -/- MEF line. The class given is cell-based, mouse. As to conditions: 1 μM STS, 4 hours. The procedure:
(§6) FIG. 4D is a photograph depicting two-color fluorescence microscopy of wt and vdac2 -/- MEF lines at 4 hours following 1 μM STS. Red indicates cytochrome c and blue is Hoechst staining of DNA.
(§7) MEF cell lines treated with 1 μM staurosporine were harvested at various time points and lysed for 5 min in isotonic buffer containing 10 mM KCl, 5 mM MgCl2, 1 mM EDTA, 1 mM EGTA, 250 mM sucrose, 20 mM Hepes, pH 7.2, 0.025% digitonin, and complete protease inhibitors (Roche). Organelles that contain mitochondria were removed from the soluble cytosolic fraction by pelleting at 15000 g. Supernatant and mitochondrial pellets were solubilized in SDS-PAGE loading buffer and analyzed by an immunoblot, developed with an anti-cytochrome c Ab. Protein cross-linking, immunoblot, immunoprecipitation, isolation of mitochondria, cell viability assays, and anti-cytochrome c immunohistochemistry were described previously E. H. Cheng et al., Mol Cell 8, 705-11. (2001).

For a further assay, the system named is wt MEF lines. The assay is described as follows: Cytochrome c fluorescence microscopy after staurosporine, wt MEF line. The class given is cell-based, mouse. To be noted: 1 μM STS, 4 hours. The procedure:
as §6, §7

The test system of assay [3] is wt MEF cell lines. The assay is described as follows: Cytochrome c release assay (subcellular fractionation, immunoblot), wt cells. The class given is cell-based, mouse. To be noted: 1 μM staurosporine. The procedure: as §4, §5, §3
Assay [4] concerns vdac2 -/- MEF cell lines. The assay is described as follows: BAK oligomerization by gel filtration after staurosporine, vdac2 -/- cells. The class given is cell-based, mouse. The procedure:
as §1, §2, §3

Another assay deals with T1, BAX (Mus musculus, UniProt Q07813).
T1 construct: endogenous in cells; host or cells: wt MEFs transduced with HA-VDAC2 retrovirus; mitochondria solubilized in 1% CHAPS or 0.2% NP-40
T1 sequence (Q07813 whole entry): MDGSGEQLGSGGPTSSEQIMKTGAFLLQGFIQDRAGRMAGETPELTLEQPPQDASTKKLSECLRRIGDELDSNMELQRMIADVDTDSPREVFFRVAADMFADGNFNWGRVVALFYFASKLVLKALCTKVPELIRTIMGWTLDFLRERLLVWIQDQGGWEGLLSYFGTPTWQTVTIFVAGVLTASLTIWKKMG
The assay is described as follows: Co-precipitation of endogenous BAX with HA-tagged VDAC2. As to conditions: wt MEF mitochondria, CHAPS, anti-HA immunoprecipitation. The class given is binding. How it is done:
(§8) FIG. 2E is a photograph depicting mitochondria isolated from wt MEFs (upper panel) or Bax, Bak doubly deficient MEFs (lower panel), which were transduced with retrovirus expressing N-terminal HA-tagged VDAC2, BAK or BAX and were solubilized in either 1% CHAPS or 0.2% NP-40 buffer, followed by immunoprecipitation with an anti-HA antibody. The immunoprecipitates were analyzed by an immunoblot developed with anti-HA-Biotin, anti-BAK, anti-BAX, or anti-VDAC2 Abs as indicated.
(§9) An HA-tagged BAK, but not HA-tagged BAX co-precipitated endogenous VDAC2 (FIG. 2E).

Another assay has as its target T2, BAK (Mus musculus, UniProt O08734).
T2 construct: endogenous in cells; host or cells: wt MEFs transduced with HA-VDAC2 retrovirus; mitochondria solubilized in 1% CHAPS or 0.2% NP-40
T2 sequence (O08734 2-209 limits assumed): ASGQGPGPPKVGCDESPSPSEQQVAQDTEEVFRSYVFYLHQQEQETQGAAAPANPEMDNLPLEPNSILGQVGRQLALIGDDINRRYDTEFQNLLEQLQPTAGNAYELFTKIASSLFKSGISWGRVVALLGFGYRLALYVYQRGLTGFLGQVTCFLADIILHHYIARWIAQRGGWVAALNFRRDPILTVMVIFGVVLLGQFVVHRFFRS
T2 sequence (Q60930 1-295 partner): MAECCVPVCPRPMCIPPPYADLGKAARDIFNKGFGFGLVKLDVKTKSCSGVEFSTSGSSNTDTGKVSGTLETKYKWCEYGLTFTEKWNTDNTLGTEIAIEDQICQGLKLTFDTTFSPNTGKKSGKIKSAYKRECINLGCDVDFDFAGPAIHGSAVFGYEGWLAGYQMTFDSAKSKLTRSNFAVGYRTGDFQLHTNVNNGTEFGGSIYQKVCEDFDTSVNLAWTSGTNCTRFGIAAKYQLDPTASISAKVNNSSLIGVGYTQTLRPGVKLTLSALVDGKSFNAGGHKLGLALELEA
Put plainly: Co-precipitation of endogenous BAK with HA-tagged VDAC2. The class given is binding. To be noted: wt MEF mitochondria, CHAPS, anti-HA immunoprecipitation. The procedure:
as §8, §9

Another assay deals with Bax -/- MEFs. The assay is described as follows: Annexin-V cell death after retroviral expression of VDAC1 or VDAC2 in Bax -/- MEFs. The class given is cell-based, mouse. As to conditions: Bax -/- cells. How it is done:
(§10) FIG. 3A are two graphs illustrating Bax -/- or Bak -/- MEFs at 2 days following retroviral expression of VDAC1, VDAC2, or GFP (MIG vector control), wherein the Bax -/- or Bak -/- MEFs were treated with 1.2 μM staurosporine (STS). Cell death was quantitated by flow cytometric detection of Annexin-V staining at indicated time points. Values shown are mean ±1 SD of three independent experiments.
(§11) FIG. 3B is a histogram depicting Bax -/- or Bak -/- MEFs at 2 days following retroviral expression of VDAC2 or GFP (MIG vector control), wherein the Bax -/- or Bak -/- MEFs were infected with tBID-expressing retrovirus. Cell death was quantitated by flow cytometric detection of Annexin-V staining at 24 hr. Values shown are mean ±1 SD of three independent experiments.
(§12) FIG. 6 are two graphs that depict Bax -/- or Bak -/- MEFs at 2 days following retroviral expression of VDAC1, VDAC2, or GFP (MIG vector control), wherein the Bax -/- or Bak -/- MEFs were treated with 10 μg/ml etoposide. Cell death was quantitated by flow cytometric detection of Annexin-V staining at indicated time points. Values shown are mean ±1 SD of three independent experiments.
(§13) Previous studies have shown that cells doubly deficient for BAX and BAK are resistant to intrinsic death stimuli, whereas cells singly deficient for BAX or BAK are still susceptible (M. C. Wei et al., Science 292, 727-30. (2001)). As VDAC2 interacts with BAK but not BAX, the ability of VDAC2 to modulate apoptosis mediated by BAK or BAX was tested. According to one hypothesis, VDAC2 might function as an inhibitor of BAK or VDAC2 itself might function as a proapoptotic factor once released from BAK. To address these alternatives VDAC 1 or VDAC2 was expressed in Bax -/- or Bak -/- singly deficient mouse embryonic fibroblasts (MEFs) followed by treatment with staurosporine or etoposide. […] Expression of VDAC2 inhibited tBID-induced apoptosis of Bax -/- cells but not Bak -/- cells, further supporting a selective role for VDAC2 in negatively regulating BAK-dependent apoptosis (FIG. 3B).

A further assay has as its system vdac2 -/- MEFs. The assay is described as follows: Re-expression of VDAC2 in vdac2 -/- MEFs, Annexin-V cell death. The class given is cell-based, mouse. To be noted: normal physiologic levels, 1.2 μM staurosporine 6 hr. The procedure: FIG. 3E is a histogram depicting infection of primary vdac2 -/- MEFs with retrovirus expressing GFP (MIG vector control) or VDAC2-IRES-GFP. At 36 hours the GFP-positive cells isolated by MoFlo sorting were treated with 1.2 μM staurosporine for 6 hr. Cell death was quantitated by flow cytometric detection of Annexin-V staining. Values shown are mean ±1 SD of three independent experiments.

The subject of a further assay is Bak -/- MEFs. Put plainly: Annexin-V cell death after retroviral expression of VDAC1 or VDAC2 in Bak -/- MEFs. The class given is cell-based, mouse. As to conditions: Bak -/- cells. The procedure: as §10, §11, §12, §13
The mark [5] stands for this setting: retroviral expression, 1.2 μM staurosporine or 10 μg/ml etoposide, Annexin-V.
Where [6] appears, read: tBID-expressing retrovirus, Annexin-V at 24 hr.

Bounds are passed on as bounds.

On to `CN[C@@H]1C[C@H]2O[C@@](C)([C@@H]1OC)n1c3ccccc3c3c4c(c5c6ccccc6n2c5c31)C(=O)NC4` [staurosporine], for which the “time to BAK oligomerization” value with wt MEF cell lines [1] was ~10 h; with vdac2 -/- MEF cell lines [4], ≤ 5 h. Further, the “time of complete release of cytochrome c” value in the assay with vdac2 -/- MEF cell lines [2] was ≤ 5 h. In addition, the “time of partial release of cytochrome c into the cytosol” value in the assay with vdac2 -/- MEF cell lines [2] is ≤ 3 h. The “cells with diffuse cytosolic staining for cytochrome c” value with vdac2 -/- MEF lines is 83%; in the assay on wt MEF lines, 16%. In addition, the “release of cytochrome c at 3 and 5 hours” value with wt MEF cell lines [3] was “had not initiated any release of cytochrome c”.

B1: HA-tagged VDAC2: N-terminal HA-tagged murine VDAC2, retrovirally expressed (protein)
chain: MAECCVPVCPRPMCIPPPYADLGKAARDIFNKGFGFGLVKLDVKTKSCSGVEFSTSGSSNTDTGKVSGTLETKYKWCEYGLTFTEKWNTDNTLGTEIAIEDQICQGLKLTFDTTFSPNTGKKSGKIKSAYKRECINLGCDVDFDFAGPAIHGSAVFGYEGWLAGYQMTFDSAKSKLTRSNFAVGYRTGDFQLHTNVNNGTEFGGSIYQKVCEDFDTSVNLAWTSGTNCTRFGIAAKYQLDPTASISAKVNNSSLIGVGYTQTLRPGVKLTLSALVDGKSFNAGGHKLGLALELEA
modifications: left off: small tags and cut ends
notes: N-terminal HA-tagged murine VDAC2, retrovirally expressed
For B1, the “co-precipitation of endogenous BAX” value with BAX is “not”. Also, the “co-precipitation of endogenous BAK” value in the assay with BAK is reported as “efficiently co-precipitated”.

B2: VDAC2: Voltage-Dependent Anion Channel-2, murine, retrovirally expressed (protein, UniProt Q60930 1-295, looked up)
Non-selective voltage-gated …: MAECCVPVCPRPMCIPPPYADLGKAARDIFNKGFGFGLVKLDVKTKSCSGVEFSTSGSSNTDTGKVSGTLETKYKWCEYGLTFTEKWNTDNTLGTEIAIEDQICQGLKLTFDTTFSPNTGKKSGKIKSAYKRECINLGCDVDFDFAGPAIHGSAVFGYEGWLAGYQMTFDSAKSKLTRSNFAVGYRTGDFQLHTNVNNGTEFGGSIYQKVCEDFDTSVNLAWTSGTNCTRFGIAAKYQLDPTASISAKVNNSSLIGVGYTQTLRPGVKLTLSALVDGKSFNAGGHKLGLALELEA
In the case of B2, the “apoptosis after staurosporine or etoposide” value in the assay on Bax -/- MEFs (setting [5]) is reported as “significantly inhibited apoptosis”; with Bak -/- MEFs (setting [5]), “no effect”. For the same molecule, the tBID-induced apoptosis entry in the assay on Bax -/- MEFs (setting [6]) is recorded as “inhibited”; with Bak -/- MEFs (setting [6]), “not”. Also, the “susceptibility to apoptosis after re-expression” value with vdac2 -/- MEFs is “reversed the increased susceptibility to apoptosis”.

The values above are taken from US20050085420A1, “Method of modulating apoptosis and compositions thereof” (priority 2003, published 2005).
